Consider four compounds from patent US20240181121A1, “A WOUND CARE PRODUCT COMPRISING AN ANTIMICROBIAL COATING” (Mölnlycke Health Care AB, priority 2021, published 2024).

Data set [1] can be described thus: Rate of dissolution of antimicrobial coating in water, LC-MS. In kind it is physicochemical. The conditions noted are these: 2 ml water; sterilized coated wound contact layer. On the procedure:
The comparison was made between prototypes spray coated with an antimicrobial solution of chlorhexidine phosphate (0.56% by weight) and prototypes spray coated with an antimicrobial solution of chlorhexidine acetate (0.68% by weight). The spray coating was performed with the same parameters and on the same equipment, as described with respect to Example 1 and 2 hereinbefore. After spraying, the samples were sent to sterilization on production site to undergo typical sterilization cycle required for antimicrobial products. […] Triplicates of silicone coated films (wound contact layers) and release liners were separated and placed in wells in contact with 2 ml solution of water during 3 hours, then removed and placed in a new well for 24 hours in order to evaluate instant (>3 h) and short (>24 h) term dissolution. After calibration of the equipment against the solutions of interest, the concentration of CHP and CHAc in the different wells was evaluated by Liquid chromatography-mass spectrometry in order to quantify the amount of antimicrobial coating that was able to dissolve instantly or shortly.

Data set [2] relates to Candida albicans ATCC 10231. The data set is described as follows: Minimum bactericidal concentration (MBC) in solution, simulated wound fluid. In kind it is cell-based. As to conditions: for MBC: Candida albicans, simulated wound fluid, 48 h. Here is the method: (§1) Test organisms: P. aeruginosa ATCC 9027 (bacteria), S. aureus ATCC 6538 (bacteria), C. albicans ATCC 10231 (fungi), P. aeruginosa ATCC PAO1 (bacteria, example 1b).
(§2) Test time: 24 h for bacteria and 48 h for fungi
(§3) Start inoculum: 1×10^6 CFU/ml for bacteria, 4×10^6 CFU/ml for fungi.
(§4) Tests were performed in solution to compare the potency of silver sulfate, chlorhexidine phosphate and chlorhexidine gluconate, using simulated wound fluid, SWF (fetal bovine serum (FBS) and Peptone Water (PW) mixed in equal proportions, which correspond to the protein and electrolyte concentration of wound exudates (Emiko Aiba-Kojima, M D et. al Wound Rep Reg (2007) 15 511-520; Trengove, N et al Wound Rep Reg (1996) 4 1067-1927)) as test medium. The aim was to define the lowest concentration of an antimicrobial agent required to kill the specific microorganism. The test microorganisms were suspended in SWF, in which antimicrobial substances were added at different concentration before subculture in well microtiter plates.

The test system of data set [3] is P. aeruginosa (ATCC 9027). Described as above. Type of data set: cell-based. Here is the method:
as §1, §2, §3, §4

For another data set, the system named is S. aureus ATCC 6538. The description is as above. Type of data set: cell-based. On the procedure: as §1, §2, §3, §4
Data set [4] relates to Pseudomonas aeruginosa PAO1 biofilms. Nature of the data set: Reduction of biofilm counts in contact with CHP solution (collagen matrix, SWF). Type of data set: cell-based. As to conditions: for Log count / Log reduction: biofilm, 24 h. Here is the method: Tests were performed in solution to evaluate the potency of chlorhexidine phosphate (CHP) against biofilms cultured on a collagen matrix, using SWF as test medium. The aim was to define if concentrations of CHP that can be spray coated on the surface of the silicone contact layer would have an impact on the biofilms. The test microorganism was Pseudomonas aeruginosa PAO1, suspended in a SWF solution, and placed on a collagen matrix in wells of 24-well plates. The well plates were incubated at 37° C., 95% relative humidity for 24 h to induce formation of biofilms. After incubation and formation of biofilms, the antimicrobial substance CHP was added on top of biofilms at different concentrations in triplicates and were incubated for another 24 h at 37° C., 95% relative humidity. […] The number of viable counts were determined by plating on PetriFilms.

For data set [5], the system named is all microorganism (same microorganisms as used in Example 1a). Nature of the data set: Antimicrobial effect of coating sprayed on silicone wound contact layer. Type of data set: cell-based, S. aureus, P. aeruginosa, C. albicans. The conditions noted are these: sterilized, 2 ml SWF.
Method: The prototypes were punched into disks of 7 cm^2 and placed in a well in contact with 2 ml SWF containing a solution of microorganism in suspension (same microorganisms as used in Example 1a). The wound contact layer used in the tests comprised a polyurethane film coated with 200 gsm of a silicone adhesive.
Microorganism growth was evaluated on the silicone layer; i.e. the skin facing surface, and in suspension in the liquid.
The test system of another data set is Staphylococcus aureus. As to conditions: prototype coated with 75 μg/cm^2; sterilized; 2 ml SWF. On the procedure:
as §1, §2, §3

As for `CC(=O)O.CC(=O)O.NC(=N\CCCCCC/N=C(N)/N=C(\N)Nc1ccc(Cl)cc1)/N=C(\N)Nc1ccc(Cl)cc1` [CHAc, chlorhexidine acetate, reference compound], in data set [1], the “Instant dissolution % Released from silicone after 3 h” value was 28% and the “Short time dissolution Additional % released from silicone after additional 21 h” value was found to be 11%.
On to `N=C(NCCCCCCNC(=N)NC(=N)Nc1ccc(Cl)cc1)NC(=N)Nc1ccc(Cl)cc1.O=C(O)[C@H](O)[C@@H](O)[C@H](O)[C@H](O)CO.O=C(O)[C@H](O)[C@@H](O)[C@H](O)[C@H](O)CO` [CHG, chlorhexidine gluconate], for which the MBC is listed as 60 µM in data set [2], 520 µM in data set [3] (24 h) and 30 µM in the data set with S. aureus ATCC 6538 (24 h).
For the compound `N=C(NCCCCCCNC(=N)NC(=N)Nc1ccc(Cl)cc1)NC(=N)Nc1ccc(Cl)cc1` [CHP, chlorhexidine phosphate], the MBC is 26 µM in data set [2] (ATCC10231); 26 µM in data set [3] (Pseudomonas aeruginosa, ATCC9027, 24 h); 7 µM with S. aureus ATCC 6538 (Staphylococcus aureus, ATCC6538, 24 h). The “times more silver than chlorhexidine phosphate required to kill Candida albicans” value in data set [2] (ratio silver vs chlorhexidine phosphate) is listed as “up to 190 times”. The “Instant dissolution % Released from silicone after 3 h” value in data set [1] was 100%. In addition, in data set [1], the “Total released in 24 h” value is 100%. Besides, the values for the Log count in data set [4] (CHP 37 uM (sample 1)), in data set [4] (CHP 75 uM (sample 2)) and in data set [4] (CHP 150 uM (sample 3)) were 4.4, 3.9 and 4.1, respectively. The figures for the Log reduction in data set [4] (CHP 37 uM (sample 1)), in data set [4] (CHP 75 uM (sample 2)) and in data set [4] (CHP 150 uM (sample 3)) were 5.5, 6.1 and 5.9, respectively. Further, the “log reduction of biofilms vs FDA requirement” value in data set [4] (CHP solutions of 37 μM, 75 μM, 150 μM) was greater than 4. Moreover, the “elimination of microorganism on the silicone surface and in the solution” value in data set [5] (prototype sprayed at 45 μg/cm^2) and in data set [5] (prototype sprayed at 75 μg/cm^2) was “full elimination” each time.
Regarding `O=S(=O)([O-])[O-].[Ag+].[Ag+]` [Silver sulfate, silver sulfate], the MBC in data set [2] was 5000 µM; in data set [3] (24 h), 160 µM; in the data set with S. aureus ATCC 6538 (24 h) it was 310 µM. Moreover, the “log reduction from inoculum size” value in the data set on Staphylococcus aureus is on record as less than 4 log.
